Experimental data from BindingDB's records for patent US10167299 (Shanghai Institute of Material Medica, Chinese Academy of …, 2019).

Molecular target: C-C chemokine receptor type 5 (Homo sapiens, UniProt P51681)
Test: Calcium Flux Inhibition Experiment
Procedure: 1. […] The medium in each well into which cells were innoculated was removed and 40 μl/well of freshly prepared dye was added. […] The dye was removed. […] FlexStation II was used for detection.

C-C chemokine receptor type 5, sequence (P51681 whole entry): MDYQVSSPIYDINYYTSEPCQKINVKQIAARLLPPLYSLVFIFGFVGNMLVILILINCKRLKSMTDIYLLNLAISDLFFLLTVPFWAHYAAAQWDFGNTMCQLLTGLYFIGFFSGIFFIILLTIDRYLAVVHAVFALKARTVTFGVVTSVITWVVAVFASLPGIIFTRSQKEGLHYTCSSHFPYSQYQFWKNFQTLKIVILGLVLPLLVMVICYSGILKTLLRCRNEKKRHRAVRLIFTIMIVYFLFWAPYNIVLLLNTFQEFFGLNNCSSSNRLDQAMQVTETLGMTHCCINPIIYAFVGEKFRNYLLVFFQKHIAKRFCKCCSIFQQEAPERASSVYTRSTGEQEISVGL

SMILES: CC(=O)N[C@@H](CCN1C2CCC1CC(n1c(C)nnc1C(C)C)C2)c1csc2ccccc12 (stereo partly specified) [US10167299, Example 28]
- IC50: 68 nM
